Legend:
[1] = tested on: Enterococcus avium LMGT 3465; assay: Relative MIC, inhibitory spectrum; format: cell-based; details: relative to L. lactis IL 1403 = 1
L. curvatus LMGT 2371 = assay: Relative MIC, inhibitory spectrum; format: cell-based, Lactobacillus curvatus; details: relative to L. lactis IL 1403 = 1
L. plantarum LMGT 2358 = assay: Relative MIC, inhibitory spectrum; format: cell-based, Lactobacillus plantarum; details: relative to L. lactis IL 1403 = 1
L. monocytogenes = assay: Antimicrobial activity against problematic bacteria; format: cell-based, Listeria monocytogenes
Experimental: (§1) To screen for bacteriocin producers with broad inhibition spectra (BIS), Lactococcus lactis, Lactobacillus sakei, Lactobacillus plantarum, Listeria innocua, and Staphylococcus aureus from the food and dairy environment were used as indicators in the first round of screening. The antimicrobial screening was performed using the agar diffusion bioassay as previously described (Holo et al., 1991, J. Bacteriol., 173, p 3879-3887). Briefly, indicator cells from overnight cultures were diluted 100-fold in 5 mL of BHI soft agar and plated out as a lawn on BHI agar plates. Potential bacteriocin producers at volumes of 3 μL were spotted on the indicator lawn and then incubated at appropriate temperatures for 24 h for cell growth and cell inhibition. Inhibition was detected as clear zones around the spotted cells.
(§2) As the antimicrobial activity of garvicin KS is relatively broad, we explored further its potential to kill a larger panel of important pathogens. The list contained 147 problematic or potentially problematic bacteria of species belonging to Listeria, Staphylococcus, Streptococcus and Enterococcus, isolated from food and clinical sources. In this assay, we compared the antimicrobial activity of garvicin KS with that of garvicin ML and nisin, the last one being known as a broad inhibition-spectrum bacteriocin (AIKhatib et al., 2014, PLOS One 9:e102246 doi:10.1371/joumal.pone.0102246). […]

[2] = tested on: C. tyrobutyricum LMGT 2511; assay: Relative MIC, inhibitory spectrum; format: cell-based, Clostridium tyrobutyricum; details: relative to L. lactis IL 1403 = 1
L. plantarum LMGT 2379 = assay: Relative MIC, inhibitory spectrum; format: cell-based, Lactobacillus plantarum; details: relative to L. lactis IL 1403 = 1
L. plantarum LMGT 2357 = assay: Relative MIC, inhibitory spectrum; format: cell-based, Lactobacillus plantarum; details: relative to L. lactis IL 1403 = 1
L. plantarum LMGT 2003 = assay: Relative MIC, inhibitory spectrum; format: cell-based, Lactobacillus plantarum; details: relative to L. lactis IL 1403 = 1
L. Sakei LMGT 2799 = assay: Relative MIC, inhibitory spectrum; format: cell-based, Lactobacillus sakei; details: relative to L. lactis IL 1403 = 1
L. grayi = assay: Antimicrobial activity against problematic bacteria; format: cell-based, Listeria grayi; details: food sources
Experimental: as §1, §2

[3] = tested on: 53 strains of different genera in the Firmicutes family; assay: Inhibitory spectrum, whole panel of Table 3; format: cell-based; details: 53 strains of Table 3
Text: A more extended comparison between the bacteriocin activity of L. garvieae KS 1546 (termed garvicin KS) and L. garvieae DCC 43 (garvicin ML producer) can also be seen in Table 3.

[4] = tested on: C. tyrobutyricum LMGT 2524; assay: Relative MIC, inhibitory spectrum; format: cell-based, Clostridium tyrobutyricum; details: relative to L. lactis IL 1403 = 1
E. faecium = assay: Antimicrobial activity against problematic bacteria; format: cell-based, Enterococcus faecium; details: food sources
Experimental: as §1, §2

L. Sakei LMGT 2380 = assay: Relative MIC, inhibitory spectrum; format: cell-based, Lactobacillus sakei; details: relative to L. lactis IL 1403 = 1
E. faecium LMGT 2763 = assay: Relative MIC, inhibitory spectrum; format: cell-based, Enterococcus faecium; details: relative to L. lactis IL 1403 = 1
L. innocua LMGT 2785 = assay: Relative MIC, inhibitory spectrum; format: cell-based, Listeria innocua; details: relative to L. lactis IL 1403 = 1
[5] = tested on: 147 problematic or potentially problematic bacteria of Listeria, Staphylococcus, Streptococcus and Enterococcus; assay: Antimicrobial activity against problematic bacteria, whole panel; format: cell-based; details: for number of sensitive strains / number of strains tested: Total
Experimental: as §1
As the antimicrobial activity of garvicin KS is relatively broad, we explored further its potential to kill a larger panel of important pathogens. The list contained 147 problematic or potentially problematic bacteria of species belonging to Listeria, Staphylococcus, Streptococcus and Enterococcus, isolated from food and clinical sources. In this assay, we compared the antimicrobial activity of garvicin KS with that of garvicin ML and nisin, the last one being known as a broad inhibition-spectrum bacteriocin (AIKhatib et al., 2014, PLOS One 9:e102246 doi:10.1371/joumal.pone.0102246). […] In all cases, garvicin KS was either equal or better than nisin, regardless of whether the isolates were from clinical or food environments, except for the activity toward clinical isolates of S. aureus where nisin appeared marginally better (24/25 for nisin and 23/25 for KS).

L. innocua = assay: Antimicrobial activity against problematic bacteria; format: cell-based, Listeria innocua; details: food sources
Experimental: as §1, §2

P. pentosaceus LMGT 2001 = assay: Relative MIC, inhibitory spectrum; format: cell-based, Pediococcus pentosaceus; details: relative to L. lactis IL 1403 = 1
S. aureus LMGT 3265 = assay: Relative MIC, inhibitory spectrum; format: cell-based, Staphylococcus aureus; details: relative to L. lactis IL 1403 = 1
S. pneumonia = assay: Antimicrobial activity against problematic bacteria; format: cell-based, Streptococcus pneumonia
Experimental: as §1, §2

L. Sakei LMGT 2361 = assay: Relative MIC, inhibitory spectrum; format: cell-based, Lactobacillus sakei; details: relative to L. lactis IL 1403 = 1
E. faecalis = assay: Antimicrobial activity against problematic bacteria; format: cell-based, Enterococcus faecalis
Experimental: as §1, §2

L. plantarum LMGT 2352 = assay: Relative MIC, inhibitory spectrum; format: cell-based, Lactobacillus plantarum; details: relative to L. lactis IL 1403 = 1
S. agalactia = assay: Antimicrobial activity against problematic bacteria; format: cell-based, Streptococcus agalactia; details: clinical sources
Experimental: as §1, §2

L. seelingeri = assay: as above; format: cell-based, Listeria seelingeri; details: food sources
Experimental: as §1, §2

L. lactis LMGT 2705 = assay: Relative MIC, inhibitory spectrum; format: cell-based, Lactococcus lactis; details: relative to L. lactis IL 1403 = 1
S. salivarius = assay: Antimicrobial activity against problematic bacteria; format: cell-based, Streptococcus salivarius; details: clinical sources
Experimental: as §1, §2

[6] = tested on: Listeria innocua LMGT 2710; assay: Relative MIC, inhibitory spectrum; format: cell-based; details: relative to L. lactis IL 1403 = 1
L. ivanovii LMGT 2813 = assay: Relative MIC, inhibitory spectrum; format: cell-based, Listeria ivanovii; details: relative to L. lactis IL 1403 = 1
E. faecalis LMGT 2333 = assay: Relative MIC, inhibitory spectrum; format: cell-based, Enterococcus faecalis; details: relative to L. lactis IL 1403 = 1
[7] = tested on: L. monocytogenes LMGT 2604; assay: Relative MIC, inhibitory spectrum; format: cell-based, Listeria monocytogenes; details: relative to L. lactis IL 1403 = 1
L. curvatus LMGT 2715 = assay: Relative MIC, inhibitory spectrum; format: cell-based, Lactobacillus curvatus; details: relative to L. lactis IL 1403 = 1
[8] = tested on: Pediococcus acidilactici LMGT 2002; assay: Relative MIC, inhibitory spectrum; format: cell-based; details: relative to L. lactis IL 1403 = 1

garvicin ML
Relative MIC value [1]: ≤0.25 | Relative MIC value (L. curvatus LMGT 2371): 32 | Relative MIC value (L. plantarum LMGT 2358): 512 | number of sensitive strains / number of strains tested (L. monocytogenes; clinical sources): 0/4 | number of sensitive strains / number of strains tested (L. monocytogenes; food sources): 0/20 | Relative MIC value [2]: 32 | Relative MIC value (L. plantarum LMGT 2379): 32 | Relative MIC value (L. plantarum LMGT 2357): 64 | Relative MIC value (L. plantarum LMGT 2003): 64 | Relative MIC value (L. Sakei LMGT 2799): 8-16 | number of sensitive strains / number of strains tested (L. grayi): 0/2 | number of sensitive strains (n) among 53 strains [3]: 39 | sensitive portion of 53 strains [3]: about 74% | Relative MIC value [4]: 32-64 | number of sensitive strains / number of strains tested (E. faecium): 7/7 | Relative MIC value (L. Sakei LMGT 2380): 32 | Relative MIC value (E. faecium LMGT 2763): 32-64 | Relative MIC value (L. innocua LMGT 2785): 32 | portion of the 147 strains killed ([5]; 147 strains, clinical and food): 34.6% | strains killed among the 147 strains tested ([5]; 147 strains, clinical and food): 51 strains | number of sensitive strains / number of strains tested ([5]; clinical sources): 12/34 | number of sensitive strains / number of strains tested ([5]; food sources): 39/113 | number of sensitive strains / number of strains tested (L. innocua): 1/6 | Relative MIC value (P. pentosaceus LMGT 2001): 16-32 | Relative MIC value (S. aureus LMGT 3265): ≥512 | number of sensitive strains / number of strains tested (S. pneumonia; clinical sources): 1/1 | number of sensitive strains / number of strains tested (S. pneumonia; food sources): 1/1 | Relative MIC value (L. Sakei LMGT 2361): 32 | number of sensitive strains / number of strains tested (E. faecalis; clinical sources): 0/2 | number of sensitive strains / number of strains tested (E. faecalis; food sources): 18/40 | Relative MIC value (L. plantarum LMGT 2352): 16 | number of sensitive strains / number of strains tested (S. agalactia): 1/1 | number of sensitive strains / number of strains tested (L. seelingeri): 0/1 | Relative MIC value (L. lactis LMGT 2705): ≤0.25 | number of sensitive strains / number of strains tested (S. salivarius): 1/1 | Relative MIC value [6]: 32 | Relative MIC value (L. ivanovii LMGT 2813): 32 | Relative MIC value (E. faecalis LMGT 2333): 64-128 | Relative MIC value [7]: 32 | Relative MIC value (L. curvatus LMGT 2715): 32 | Relative MIC value [8]: 32

Source: patent publication US10781236B2, “Bacteriocin composition and method” (priority 2015, dated 2020)
